# Measured values as given in US20140329776A1, “Mitochondria-Targeted Antioxidants for Treatment of Age-Related Brain Disorders” (MITOTECH S.A., priority 2011, published 2014).
# How the values were obtained:
# Wistar rats [1] = assay: elevated plus maze, age-dependent behavioral defects; format: in vivo, rat; details: 14-month-old rats
# Description: Rats of 3 months and 14 months old were investigated. An elevated plus maze with two open and two closed arms was used. Young animals placed in the maze center entered both types of arms with equal probability (FIGS. 2A and 2C). However, the 14-month-old rats preferred to enter the closed arms only (FIG. 2D), the probability of entering the open arms being extremely low. If, nevertheless, a 14-month-old rat entered an open arm, the animal immediately left this arm (FIG. 2B). […] This difference was also abolished by SkQ1 (Stefanova, et al., J. Alzheimer's Dis. 21:479-491 (2010)).
# [2] = system: hippocampal slice neurons; assay: long-term potentiation (LTP) of hippocampal slices treated with Aβ after in vivo treatment; parameters: species or system rat
# Experimental: FIG. 3B is a graphic representation showing the LTP caused by in vitro addition of Aβ, where the decay of LTP of hippocampal slice neurons characterized by a decrease of pop-spike amplitude (%) in a hippocampal slice treated with Aβ.
# SkQR1 Aβ was added 15 min before the LTP induction with high-frequency electric stimulation (arrow). The decay of LTP (i.e. decrease of pop-spike amplitude) in a hippocampal slice treated with Aβ can be prevented by SkQR1 treatment.
# FIG. 16 is a bar graph comparing the neuroprotective effects of preferred SkQ mitochondria-targeted antioxidants of the invention when administered in vivo in a model of Alzheimer disease.
# As a model of cell memory, an electric response of a hippocampal slice (long-term potentiation, LTP) was used (Malenka, et al., Science 285:1870-1874 (1999)). A direct experiment was performed showing the prevention of Aβ toxicity in hippocampus by in vivo treatment of rats with 1 μmol SkQR1 per kg of body weight. The compound was injected intraperitoneally into the animal 24 hours before hippocampal slices were obtained to measure LTP. Some slices were pretreated with Aβ for 15 minutes. As is seen in FIG. 3B, Aβ impaired LTP relative to untreated control.
# FIG. 16 provides a comparison of the neuroprotective effects of SkQ1, SkQR1 and C12TPP based on the LTP signal in neurons of hippocampal slices. Ab stands for beta-amyloid treatment. […] All SkQs and C12TPP were administered in vivo to rats prior the extraction of hippocampus.
# Wistar rats [3] = assay: muscle strength measurement 4 hours after ethanol narcosis; format: in vivo, rat; details: SkQ1 250 nM after ethanol narcosis; p<0.05
# Experimental: FIG. 6 is a graphic representation showing muscle strength measurement 4 hours after ethanol narcosis in % to intact control. *−p<0.05 to negative control, #−p<0.05 to intact control;
# In these experiments, 6 groups of experimental animals (Wistar rats) were used. (1) The Intact Control group (n=12), had no ethanol narcosis, and were orally administered a normal isotonic 0.9% NaCl solution; (2) the Negative Control group (n=12) was orally administered a normal physiological solution after ethanol narcosis; (3) The SkQ1 50 nM control group (n=12) was orally administered SkQ1 in a concentration 50 nM after ethanol narcosis; (4) The SkQ1 250 nM control group (n=12) was orally administered SkQ1 in a concentration of 250 nM after ethanol narcosis; (5) The SkQ1 1250 nM control group (n=12) was orally administered SkQ1 in a concentration of 1250 nM after ethanol narcosis; (6) the SkQ1 1250 nM intr control group (n=13) was intraperitoneally administered SkQ1 in a concentration of 1250 nM after ethanol narcosis.
# In the Negative Control group ethanol intoxication caused a decrease of locomotor activity compared to Intact Control group: decreased track length (p<0.05), movement time (p<0.05), mean speed (p<0.05) and increased immobilization time (p<0.05) (FIG. 4). […]
# [4] = system: chronically alcoholised rats; assay: open field test of chronically alcoholised rats; format: in vivo, rat; details: vs Negative Control
# Experimental: FIG. 9 is a graphic representation showing behavior parameters in the open field test of chronically alcoholised rats in % to intact control. (*−p<0.05; **—p<0.005 to negative control; #—p<0.05, ##—p<0.01, to intact control);
# (§1) Male albino rats had free access to a 15% ethanol solution, as well as to food and water. After 6 months of alcoholisation, animals with average consumption more than 11 ml of 15% ethanol solution were divided into two even groups and subjected to the following treatment. The Negative Control group (n=16) (chronically alcoholised rats) were orally administered 1 ml per kg of isotonic 0.9% NaCl solution every two days for 20 days during alcohol deprivation. The SkQ1 group (n=17) (chronically alcoholised rats) were orally administered 1 ml per kg of SkQ1 250 nM solution every two days for 20 days during alcohol deprivation. The Intact Control group (n=10) (animals had no previous contact with ethanol) were orally administered 1 ml per kg of normal physiological solution every two days for 20 days.
# (§2) After this course of drug administration, the effect on behavioral parameters was observed using the open field test, the elevated plus maze test, and the Porsolt forced swimming test.
# In the open field test, treated animals had increased number of rearing ((p<0.05), number of entrance in central zone (p<0.01), movement time in central zone (p<0.05)) compared to the Negative Control group (FIG. 9. Therefore, SkQ1 increases exploratory activity during alcohol deprivation.
# [5] = system: chronically alcoholised rats; assay: Porsolt forced swimming test of chronically alcoholised rats; format: in vivo, rat; details: SkQ1 250 nM solution orally every two days for 20 days; p<0.05
# Experimental: FIG. 11 is a graphic representation showing behavior parameters in the Porsolt forced swimming test of chronically alcoholised rats in % to intact control. (*−p<0.05 SKQ-1 to negative control); and
# as §1, §2
# Wistar rats [6] = details: open field test; cited from earlier work
# [7] = 250 nmol/kg daily in food for 10 weeks
smiles,measurement,setting,value
"CC1=C(C)C(=O)C(CCCCCCCCCC[P+](c2ccccc2)(c2ccccc2)c2ccccc2)=CC1=O [SkQ1, plastoquinonyl decyltriphenyl-phosphonium]",age effect in elevated plus maze,Wistar rats [1]; 250 nmol/kg body weight daily in food for 10 weeks,completely reversed
same,probability of entering an open arm,Wistar rats [1]; [7],as high as for young rats
same,time spent in open arm,Wistar rats [1]; [7],almost as long as for the young rodents
same,"neuroprotective activity based on LTP signal, model of Alzheimer disease","[2]; administered in vivo to rats prior to extraction of hippocampus, beta-amyloid treatment, FIG. 16",neuroprotective activity
same,impairment (decay) of LTP caused by Aβ,"[2]; in vivo treatment (SkQR1 1 μmol/kg i.p. 24 hours before slices), Aβ added to slices for 15 min",prevents decay
same,muscle strength,Wistar rats [3],increasing
same,number of rearing,"[4]; 1 ml per kg SkQ1 250 nM solution orally every two days for 20 days during alcohol deprivation, p<0.05",increased
same,number of entrance in central zone,"[4]; SkQ1 250 nM solution orally every two days for 20 days, p<0.01",increased
same,movement time in central zone,"[4]; SkQ1 250 nM solution orally every two days for 20 days, p<0.05",increased
same,immobilization time,[5],less
same,difference in number of squares crossed between 14-month-old and 3-month-old rats,Wistar rats [6],abolished
